The results in this text go back to ChEMBL document CHEMBL3351988, “Synthesis and biological evaluation of novel 6-chloro-quinazolin derivatives as potential antitumor agents” (Eur J Med Chem, 2014).

For assay [1], the system named is MGC-803. Nature of the assay: Growth inhibition of human MGC803 cells at 10 uM after 72 hrs by MTT assay. The format is functional. The settings on record: MGC-803, 72 h, read-out: GI.
The test system of assay [2] is Bcap37. Briefly: Growth inhibition of human Bcap37 cells at 10 uM after 72 hrs by MTT assay. The format is functional. The following applies: Bcap37, 72 h, read-out: GI.
A short description of assay [3]: Growth inhibition of human PC3 cells at 10 uM after 72 hrs by MTT assay. The format is functional. The settings on record: PC-3, 72 h, read-out: GI.
Assay [4] relates to MGC-803. Briefly: Growth inhibition of human MGC803 cells after 72 hrs by MTT assay. The format is functional, cell-based. The following applies: MGC-803, 72 h.
In assay [5] the test system is Bcap37. Nature of the assay: Growth inhibition of human Bcap37 cells after 72 hrs by MTT assay. The format is functional, cell-based. The following applies: Bcap37, 72 h.
Assay [6] is described as follows: Growth inhibition of human PC3 cells after 72 hrs by MTT assay. The format is functional, cell-based. The following applies: PC-3, 72 h.
The test system of assay [7] is Bcap37. Nature of the assay: Induction of apoptosis in human Bcap37 cells assessed as cell volume reduction at 1 to 10 uM after 12 hrs by AO/EB staining based fluorescence microscopy. The format is functional.
Assay [8] has as its system MGC-803. Briefly: Induction of apoptosis in human MGC803 cells assessed as cell volume reduction at 1 to 10 uM after 12 hrs by AO/EB staining based fluorescence microscopy. The format is functional.
The test system of assay [9] is Bcap37. Briefly: Induction of apoptosis in human Bcap37 cells assessed as chromatin condensation at 1 to 10 uM after 12 hrs by AO/EB staining based fluorescence microscopy. The format is functional, cell-based.
Assay [10] concerns MGC-803. Briefly: Induction of apoptosis in human MGC803 cells assessed as chromatin condensation at 1 to 10 uM after 12 hrs by AO/EB staining based fluorescence microscopy. The format is functional, cell-based.
For assay [11], the system named is Bcap37. Briefly: Induction of apoptosis in human Bcap37 cells assessed as nuclear fragmentation at 1 to 10 uM after 12 hrs by AO/EB staining based fluorescence microscopy. The format is functional, cell-based.
For assay [12], the system named is MGC-803. Briefly: Induction of apoptosis in human MGC803 cells assessed as nuclear fragmentation at 1 to 10 uM after 12 hrs by AO/EB staining based fluorescence microscopy. The format is functional, cell-based.
Assay [13] relates to MGC-803. Briefly: Induction of apoptosis in human MGC803 cells assessed as condensed chromatin at 1 to 10 uM after 12 hrs by Hoechst 33258 staining based fluorescence microscopy. The format is functional, cell-based.
In assay [14] the test system is Bcap37. Briefly: Induction of apoptosis in human Bcap37 cells assessed as condensed chromatin at 1 to 10 uM after 12 hrs by Hoechst 33258 staining based fluorescence microscopy. The format is functional, cell-based.
Assay [15] concerns Bcap37. Nature of the assay: Induction of apoptosis in human Bcap37 cells assessed as DNA fragmentation at 10 uM after 12 hrs by TUNEL assay. The format is functional, cell-based.
The subject of assay [16] is MGC-803. Nature of the assay: Induction of apoptosis in human MGC803 cells assessed as DNA fragmentation at 10 uM after 12 hrs by TUNEL assay. The format is functional, cell-based.
Assay [17] concerns MGC-803. Nature of the assay: Induction of apoptosis in human MGC803 cells at 1 uM after 6 hrs by Annexin V-FITC staining based flow cytometry. The format is functional.
Assay [18] concerns MGC-803. Briefly: Induction of apoptosis in human MGC803 cells at 5 uM after 6 hrs by Annexin V-FITC staining based flow cytometry. The format is functional.
The subject of assay [19] is MGC-803. Nature of the assay: Induction of apoptosis in human MGC803 cells at 10 uM after 6 hrs by Annexin V-FITC staining based flow cytometry. The format is functional.
In assay [20] the test system is MGC-803. Nature of the assay: Induction of apoptosis in human MGC803 cells at 1 uM after 12 hrs by Annexin V-FITC staining based flow cytometry. The format is functional.
The subject of assay [21] is MGC-803. Briefly: Induction of apoptosis in human MGC803 cells at 5 uM after 12 hrs by Annexin V-FITC staining based flow cytometry. The format is functional.
Assay [22] deals with MGC-803. Nature of the assay: Induction of apoptosis in human MGC803 cells at 10 uM after 12 hrs by Annexin V-FITC staining based flow cytometry. The format is functional.
Assay [23] deals with MGC-803. Briefly: Induction of apoptosis in human MGC803 cells at 1 uM after 24 hrs by Annexin V-FITC staining based flow cytometry. The format is functional.
Assay [24] deals with MGC-803. Briefly: Induction of apoptosis in human MGC803 cells at 5 uM after 24 hrs by Annexin V-FITC staining based flow cytometry. The format is functional.
The subject of assay [25] is MGC-803. Nature of the assay: Induction of apoptosis in human MGC803 cells at 10 uM after 24 hrs by Annexin V-FITC staining based flow cytometry. The format is functional.
In assay [26] the test system is MGC-803. Briefly: Induction of apoptosis in human MGC803 cells assessed as early apoptotic cell level at 10 uM after 12 hrs by AO/EB staining based fluorescence microscopy. The format is functional.
Assay [27] deals with MGC-803. Nature of the assay: Induction of apoptosis in human MGC803 cells assessed as late apoptotic cell level at 10 uM after 12 hrs by AO/EB staining based fluorescence microscopy. The format is functional.
In assay [28] the test system is Bcap37. Nature of the assay: Induction of apoptosis in human Bcap37 cells assessed as early apoptotic cell level at 10 uM after 12 hrs by AO/EB staining based fluorescence microscopy. The format is functional.
Assay [29] relates to Bcap37. Briefly: Induction of apoptosis in human Bcap37 cells assessed as late apoptotic cell level at 10 uM after 12 hrs by AO/EB staining based fluorescence microscopy. The format is functional.
For assay [30], the system named is MGC-803. Nature of the assay: Induction of apoptosis in human MGC803 cells assessed as condensed chromatin at 10 uM after 12 hrs by Hoechst 33258 staining based fluorescence microscopy. The format is functional, cell-based.
For assay [31], the system named is Bcap37. Nature of the assay: Induction of apoptosis in human Bcap37 cells assessed as condensed chromatin at 10 uM after 12 hrs by Hoechst 33258 staining based fluorescence microscopy. The format is functional, cell-based.

pIC50: −log10 of the molar value. Structures can show the parent of a compound that is named as a salt. Activity calls are given as the source filed them. The rule behind the calls is not given here.

Regarding `O=C(/C=C/c1ccc(Oc2ncnc3ccc(Cl)cc23)cc1)/C=C/c1cccc(Cl)c1Cl`, the results for the inhibition of growth at 10 µM in assay [1], in assay [2] and in assay [3] were 68.5%, 61.7% and 67.4%, respectively. In addition, the pIC50 in [4] was 5.14; in assay [5], 4.84; in assay [6], 4.99.
Regarding `COc1cccc2c1C(=O)c1c(O)c3c(c(O)c1C2=O)C[C@@](O)(C(=O)CO)C[C@@H]3O[C@H]1C[C@H](N)[C@H](O)[C@H](C)O1` [DOXORUBICIN HYDROCHLORIDE], the figures for the inhibition of growth at 10 µM in assay [1], in assay [2] and in assay [3] were 95.8%, 96.2% and 93.5%, respectively. Besides, the pIC50 in assay [4] is 6.15; in assay [5] it was 6.03; in assay [6], 6.10.
For the compound `O=C(/C=C/c1ccccc1Oc1ncnc2ccc(Cl)cc12)/C=C/c1cccc(Cl)c1Cl`, the inhibition of growth at 10 µM in assay [1] was determined as 76.5%; in assay [2], 70.2%; in assay [3], 73.8%. The pIC50 in assay [4] is 5.28; in assay [5], 4.94; in assay [6], 5.08.
As for `O=C(/C=C/c1ccc(Oc2ncnc3ccc(Cl)cc23)cc1)/C=C/c1ccc(Cl)c([N+](=O)[O-])c1`, the inhibition of growth at 10 µM amounted to 66.2% in [1], 56.3% in assay [2] and 56.3% in [3]. Besides, the pIC50 in assay [4] was 5.14; in assay [5] it was 4.79; in assay [6], 4.93.
In the case of `O=C(/C=C/c1cc([N+](=O)[O-])ccc1Cl)/C=C/c1ccccc1Oc1ncnc2ccc(Cl)cc12`, the inhibition of growth at 10 µM in [1] was 91.6%; in assay [2] it was 78.4%; in assay [3] it was 86.9%. Moreover, the figures for the pIC50 in assay [4], in assay [5] and in assay [6] were 5.71, 5.07 and 5.60, respectively. Besides, the result in assay [7], in assay [8], in assay [9], in assay [10], in assay [11] and in assay [12] was Active. Moreover, the result in assay [13], in assay [14], in [15] and in assay [16] was Active. Also, the Activity is recorded as 2% in assay [17]; 6.7% in [18]; 10.3% in [19]; 3.5% in [20]; 9.2% in [21]; 15.7% in assay [22]. Further, the Activity in assay [23] is on record as 5.2%; in assay [24], 16.8%; in assay [25], 31.7%.
On to `O=C(/C=C/c1ccc(Oc2ncnc3ccc(Cl)cc23)cc1)/C=C/c1c(Cl)cccc1Cl`, for which the inhibition of growth at 10 µM in assay [1] was 61.7%; in assay [2], 62.5%; in assay [3], 67.5%. Besides, the pIC50 in assay [4] was 5.17; in [5], 4.86; in assay [6], 5.03.
For `O=C(/C=C/c1ccc(Cl)c([N+](=O)[O-])c1)/C=C/c1ccccc1Oc1ncnc2ccc(Cl)cc12`, the inhibition of growth at 10 µM in assay [1] worked out at 70.2%; in [2] it was 52.5%; in assay [3], 62.5%. Also, the pIC50 in [4] is 5.27; in assay [5], 4.91; in assay [6], 5.01.
Turning to `O=C(/C=C/c1ccc(Oc2ncnc3ccc(Cl)cc23)cc1)/C=C/c1ccc(Cl)c(Cl)c1`, the figures for the inhibition of growth at 10 µM in assay [1], in assay [2] and in assay [3] were 50.5%, 34.5% and 33.5%, respectively. The figures for the pIC50 in assay [4], in [5] and in assay [6] were 4.77, 4.55 and 4.73, respectively.
In the case of `O=C(/C=C/c1ccc(Cl)c(Cl)c1)/C=C/c1ccccc1Oc1ncnc2ccc(Cl)cc12`, the inhibition of growth at 10 µM in assay [1] was determined as 56.7%; in assay [2], 38.2%; in assay [3], 42.2%. In addition, the pIC50 in [4] is 4.79; in assay [5] it was 4.67; in assay [6], 4.74.
As to `CC[C@@]1(O)C(=O)OCc2c1cc1n(c2=O)Cc2cc3cc(O)ccc3nc2-1` [HYDROXYCAMPTOTHECIN], the result in assay [26], in assay [27], in assay [28], in assay [29], in [30] and in assay [31] was Active. The result in assay [15] and in assay [16] was Active. For the same compound, the Activity is given as 1.3% in [17]; 1.8% in assay [18]; 3.5% in assay [19]; 2.1% in [20]; 6% in [21]; 9.1% in assay [22]. In addition, the Activity turned out to be 3.8% in assay [23], 7.3% in assay [24] and 18.6% in assay [25].
Consider `O=C(/C=C/c1ccccc1Oc1ncnc2ccc(Cl)cc12)/C=C/c1c(Cl)cccc1Cl`, for which the inhibition of growth at 10 µM is 69.3% in assay [1], 67.1% in assay [2] and 70.1% in assay [3]. In addition, the pIC50 is 5.29 in assay [4], 4.95 in assay [5] and 5.10 in assay [6].
Take `O=C(/C=C/c1ccc(Oc2ncnc3ccc(Cl)cc23)cc1)/C=C/c1cc([N+](=O)[O-])ccc1Cl`: the inhibition of growth at 10 µM in assay [1] turned out to be 86.7%; in assay [2] it was 72.5%; in assay [3], 76.8%. For the same compound, the results for the pIC50 in [4], in [5] and in assay [6] were 5.67, 5.01 and 5.50, respectively. Moreover, the result in assay [7], in [8], in assay [9], in assay [10], in assay [11] and in assay [12] was Active. The outcome in [13], in assay [14], in assay [15] and in [16] was Active. Moreover, the Activity in assay [17] is 1.2%; in assay [18] it was 1.7%; in assay [19], 4.2%; in assay [20] it was 1.8%; in [21] it was 5.6%; in assay [22], 8.9%. Besides, the Activity in [23] came out at 4.3%; in assay [24], 9.8%; in assay [25] it was 21.9%.
